{"source": "paper PMC6017193", "about": "“Structure-Based Discovery of a Series of 5H-Pyrrolo[2,3-b]pyrazine FGFR Kinase Inhibitors” (Molecules : A Journal of Synthetic Chemistry and Natural …, 2018)", "key": {"KDR": {"target": "KDR (Homo sapiens, UniProt P35968)", "sequence (P35968 20-1356, species assumed)": "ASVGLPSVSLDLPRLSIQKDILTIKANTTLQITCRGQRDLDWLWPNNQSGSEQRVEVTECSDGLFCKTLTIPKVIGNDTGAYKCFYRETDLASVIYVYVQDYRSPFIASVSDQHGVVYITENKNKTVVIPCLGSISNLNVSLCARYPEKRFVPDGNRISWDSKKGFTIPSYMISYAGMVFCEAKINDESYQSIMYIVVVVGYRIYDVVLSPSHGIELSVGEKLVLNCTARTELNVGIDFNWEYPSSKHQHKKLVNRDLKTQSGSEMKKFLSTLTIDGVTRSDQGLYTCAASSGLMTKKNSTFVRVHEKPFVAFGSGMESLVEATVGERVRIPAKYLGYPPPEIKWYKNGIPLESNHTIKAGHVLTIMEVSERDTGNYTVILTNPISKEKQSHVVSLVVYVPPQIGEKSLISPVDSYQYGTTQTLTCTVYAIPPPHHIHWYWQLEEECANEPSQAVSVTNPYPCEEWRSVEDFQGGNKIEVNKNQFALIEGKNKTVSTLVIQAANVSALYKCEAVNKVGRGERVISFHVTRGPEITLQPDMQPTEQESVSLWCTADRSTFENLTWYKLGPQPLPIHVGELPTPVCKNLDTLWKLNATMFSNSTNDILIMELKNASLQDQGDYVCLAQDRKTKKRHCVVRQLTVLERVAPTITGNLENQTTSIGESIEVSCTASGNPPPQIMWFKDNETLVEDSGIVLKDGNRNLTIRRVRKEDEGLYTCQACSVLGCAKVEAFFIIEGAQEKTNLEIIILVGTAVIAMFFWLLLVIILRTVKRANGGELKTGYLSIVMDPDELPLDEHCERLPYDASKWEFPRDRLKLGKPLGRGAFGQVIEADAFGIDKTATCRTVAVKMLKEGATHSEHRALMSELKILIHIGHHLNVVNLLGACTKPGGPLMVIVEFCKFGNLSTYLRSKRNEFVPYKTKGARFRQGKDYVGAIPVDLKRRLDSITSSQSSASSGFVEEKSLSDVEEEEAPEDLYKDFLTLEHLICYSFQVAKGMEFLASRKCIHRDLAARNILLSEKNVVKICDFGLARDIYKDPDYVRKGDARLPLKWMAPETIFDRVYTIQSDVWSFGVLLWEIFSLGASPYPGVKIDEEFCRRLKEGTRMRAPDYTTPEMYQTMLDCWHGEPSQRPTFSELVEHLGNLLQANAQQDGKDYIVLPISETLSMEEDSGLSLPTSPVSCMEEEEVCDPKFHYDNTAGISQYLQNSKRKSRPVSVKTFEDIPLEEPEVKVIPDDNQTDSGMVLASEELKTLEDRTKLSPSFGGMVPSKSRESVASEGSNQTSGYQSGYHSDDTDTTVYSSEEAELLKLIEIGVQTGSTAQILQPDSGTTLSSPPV", "assay": "Kinase panel profiling", "assay_type": "biochemical"}, "Abl": {"target": "Abl (Homo sapiens, UniProt P00519)", "sequence (P00519 whole entry, species assumed)": "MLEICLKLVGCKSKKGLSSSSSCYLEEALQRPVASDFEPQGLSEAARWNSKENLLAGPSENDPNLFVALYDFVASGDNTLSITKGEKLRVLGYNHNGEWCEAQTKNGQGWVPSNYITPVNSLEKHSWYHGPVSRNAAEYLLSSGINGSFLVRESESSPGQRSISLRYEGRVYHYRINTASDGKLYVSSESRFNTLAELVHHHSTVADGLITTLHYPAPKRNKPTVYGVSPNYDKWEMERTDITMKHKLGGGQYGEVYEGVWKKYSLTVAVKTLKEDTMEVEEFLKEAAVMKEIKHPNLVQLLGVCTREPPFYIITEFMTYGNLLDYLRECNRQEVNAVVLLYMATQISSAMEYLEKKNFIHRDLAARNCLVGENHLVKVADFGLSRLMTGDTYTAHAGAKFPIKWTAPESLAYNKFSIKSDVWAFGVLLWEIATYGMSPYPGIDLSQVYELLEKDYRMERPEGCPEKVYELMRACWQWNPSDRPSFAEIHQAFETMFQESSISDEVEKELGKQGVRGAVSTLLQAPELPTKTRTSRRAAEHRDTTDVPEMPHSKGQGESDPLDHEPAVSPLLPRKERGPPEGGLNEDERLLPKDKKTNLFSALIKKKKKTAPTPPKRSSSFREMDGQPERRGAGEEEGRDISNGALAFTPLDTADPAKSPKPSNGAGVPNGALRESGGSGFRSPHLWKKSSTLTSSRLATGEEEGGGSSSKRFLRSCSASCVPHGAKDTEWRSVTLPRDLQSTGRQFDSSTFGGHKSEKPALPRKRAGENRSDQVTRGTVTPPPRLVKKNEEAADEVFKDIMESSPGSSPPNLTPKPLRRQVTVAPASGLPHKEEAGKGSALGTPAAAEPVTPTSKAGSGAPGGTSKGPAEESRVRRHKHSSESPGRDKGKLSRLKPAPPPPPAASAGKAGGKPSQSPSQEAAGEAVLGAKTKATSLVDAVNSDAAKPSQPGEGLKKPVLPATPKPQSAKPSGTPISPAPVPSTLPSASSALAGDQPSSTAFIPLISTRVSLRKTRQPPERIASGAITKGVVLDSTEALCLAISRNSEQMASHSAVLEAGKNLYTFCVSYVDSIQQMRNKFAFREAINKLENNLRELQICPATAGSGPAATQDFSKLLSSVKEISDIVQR", "assay": "Kinase panel profiling", "assay_type": "biochemical"}, "FGFR1": {"target": "T1, FGFR1 (Homo sapiens, UniProt P11362)", "T1 construct": "purchased Millipore", "T1 sequence (P11362 22-822)": "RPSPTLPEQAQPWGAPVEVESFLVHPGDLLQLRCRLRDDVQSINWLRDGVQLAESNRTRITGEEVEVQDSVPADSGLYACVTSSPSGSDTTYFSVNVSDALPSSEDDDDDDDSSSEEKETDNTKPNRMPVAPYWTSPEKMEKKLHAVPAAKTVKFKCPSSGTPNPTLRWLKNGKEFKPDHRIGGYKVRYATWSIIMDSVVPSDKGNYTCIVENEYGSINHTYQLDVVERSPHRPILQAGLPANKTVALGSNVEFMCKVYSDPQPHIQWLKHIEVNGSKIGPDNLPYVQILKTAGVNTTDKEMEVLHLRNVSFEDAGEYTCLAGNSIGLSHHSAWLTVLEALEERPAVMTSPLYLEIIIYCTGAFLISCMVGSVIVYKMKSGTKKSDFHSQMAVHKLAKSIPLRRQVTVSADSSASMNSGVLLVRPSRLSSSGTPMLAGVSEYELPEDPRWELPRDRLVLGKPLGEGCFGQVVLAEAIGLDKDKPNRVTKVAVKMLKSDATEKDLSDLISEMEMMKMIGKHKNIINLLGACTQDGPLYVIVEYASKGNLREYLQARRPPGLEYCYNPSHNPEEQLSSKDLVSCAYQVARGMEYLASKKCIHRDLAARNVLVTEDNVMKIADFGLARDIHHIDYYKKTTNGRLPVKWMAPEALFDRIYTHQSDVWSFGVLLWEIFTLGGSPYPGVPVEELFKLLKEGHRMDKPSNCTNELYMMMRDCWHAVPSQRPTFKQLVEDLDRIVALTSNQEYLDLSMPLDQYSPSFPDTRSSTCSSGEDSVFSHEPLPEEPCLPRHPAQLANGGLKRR", "assay": "ELISA kinase assay, FGFR1 enzymatic activity", "assay_type": "biochemical", "protocol": "(§1) The effects of compounds on the activities of indicated (FGFR1 and c-Met) kinases were determined using enzyme-linked immunosorbent assays (ELISAs) with purified recombinant proteins. Briefly, 20 μg/mL poly (Glu, Tyr)4:1 (Sigma, St. Louis, MO, USA) was precoated in 96-well plates as a substrate. A 50-μL aliquot of 10 μmol/L ATP solution diluted in kinase reaction buffer (50 mmol/L HEPES (pH 7.4), 50 mmol/L MgCl2, 0.5 mmol/L MnCl2, 0.2 mmol/L Na3VO4, and 1 mmol/L DTT) was added to each well; 1 μL of various concentrations of compounds diluted in 1% DMSO (v/v) (Sigma) were then added to each reaction well. DMSO (1%, v/v) was used as the negative control. The kinase reaction was initiated by the addition of purified tyrosine kinase proteins FGFR1 (Millipore, Darmstadt, Germany) or c-Met (Millipore) diluted in 49 μL of kinase reaction buffer. After incubation for 60 min at 37 °C, the plate was washed three times with phosphate-buffered saline (PBS) containing 0.1% Tween 20 (T-PBS). Anti-phosphotyrosine (PY99) antibody (Sanra Cruz, Dallas, TX, USA) (100 μL; 1:500, diluted in 5 mg/mL bovine serum albumin (BSA) T-PBS) was then added. After a 30-min incubation at 37 °C, the plate was washed three times, and 100 μL of horseradish peroxidase-conjugated goat anti-mouse IgG (Calbiochem, Shanghai, China) (1:2000, diluted in 5 mg/mL BSA T-PBS) was added. The plate was then incubated at 37 °C for 30 min, and washed three times. A 100-μL aliquot of a solution containing 0.03% H2O2 and 2 mg/mL o-phenylenediamine in 0.1 mol/L citrate buffer (pH 5.5) was added. The reaction was terminated by the addition of 50 μL of 2 mol/L H2SO4 as the color changed, and the plate was analyzed using a multi-well spectrophotometer (SpectraMAX 190, Molecular Devices, Palo Alto, CA, USA) at 490 nm. The inhibition rate (%) was calculated using the following equation:IR = [1 − (A490/A490control)] × 100%.(1) where IR, A490, and A490control are the inhibition rate, the absorbance value of the tested compound at 490 nm, and the absorbance value of the negative control compound at 490 nm, respectively. The IC50 values were calculated from the inhibition curves in two separate experiments."}, "[1]": {"system": "KG1 leukemia cell line harboring FGFR1OP-FGFR1 fusion", "assay": "Cell proliferation assay in KG1 cells (SRB or MTT, 72 h)", "assay_type": "cell-based", "conditions": "Homo sapiens, KG-1, mean ± SD from two separate experiments, read-out: KG1 IC50 (antiproliferation activity)", "protocol": "Cell proliferation was examined in a FGFR1-translocated KG1 leukemia cell line harboring FGFR1OP-FGFR1 fusion. The original KG1 cell line was purchased from ATCC (CRL-8031), and cultured according the ATCC standard protocol. Cells were seeded in 96-well tissue culture plates. On the next day, the cells were exposed to various concentrations of compounds and further cultured for 72 h. Cell proliferation was then determined using sulforhodamine B (SRB, from Sigma-Aldrich, St Louis, MO, USA) or the thiazolyl blue tetrazolium bromide (MTT, from Sigma-Aldrich, St Louis, MO, USA) assay. The IC50 values were calculated by concentration- response curve fitting using the four-parameter method."}, "DDR2": {"target": "T2, DDR2 (Homo sapiens, UniProt Q16832)", "T2 sequence (Q16832 22-855)": "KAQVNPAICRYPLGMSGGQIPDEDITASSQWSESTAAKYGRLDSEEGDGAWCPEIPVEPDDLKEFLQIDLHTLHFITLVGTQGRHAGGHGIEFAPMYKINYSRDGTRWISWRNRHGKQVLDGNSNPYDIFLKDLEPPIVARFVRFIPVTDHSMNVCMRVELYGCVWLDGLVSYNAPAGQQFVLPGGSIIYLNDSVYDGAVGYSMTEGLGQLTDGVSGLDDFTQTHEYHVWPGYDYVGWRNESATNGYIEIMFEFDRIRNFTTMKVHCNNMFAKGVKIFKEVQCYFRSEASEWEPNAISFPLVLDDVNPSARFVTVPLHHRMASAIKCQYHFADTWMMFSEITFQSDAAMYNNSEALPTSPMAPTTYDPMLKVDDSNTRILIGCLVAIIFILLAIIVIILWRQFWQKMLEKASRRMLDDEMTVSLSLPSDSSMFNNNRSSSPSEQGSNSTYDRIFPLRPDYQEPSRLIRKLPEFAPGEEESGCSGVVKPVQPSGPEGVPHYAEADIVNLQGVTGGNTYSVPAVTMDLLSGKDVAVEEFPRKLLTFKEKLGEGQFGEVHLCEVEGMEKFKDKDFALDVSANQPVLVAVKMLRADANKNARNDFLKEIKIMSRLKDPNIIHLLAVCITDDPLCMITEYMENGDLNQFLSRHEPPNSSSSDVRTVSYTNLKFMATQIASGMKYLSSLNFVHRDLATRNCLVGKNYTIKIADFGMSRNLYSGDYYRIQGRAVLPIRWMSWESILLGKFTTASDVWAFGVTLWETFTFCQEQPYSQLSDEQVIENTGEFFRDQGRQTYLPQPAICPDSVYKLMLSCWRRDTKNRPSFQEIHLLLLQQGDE", "assay": "Kinase panel profiling", "assay_type": "biochemical"}, "c-Met": {"target": "T3, c-Met (Homo sapiens, UniProt P08581)", "T3 construct": "purchased Millipore", "T3 sequence (P08581 25-1390)": "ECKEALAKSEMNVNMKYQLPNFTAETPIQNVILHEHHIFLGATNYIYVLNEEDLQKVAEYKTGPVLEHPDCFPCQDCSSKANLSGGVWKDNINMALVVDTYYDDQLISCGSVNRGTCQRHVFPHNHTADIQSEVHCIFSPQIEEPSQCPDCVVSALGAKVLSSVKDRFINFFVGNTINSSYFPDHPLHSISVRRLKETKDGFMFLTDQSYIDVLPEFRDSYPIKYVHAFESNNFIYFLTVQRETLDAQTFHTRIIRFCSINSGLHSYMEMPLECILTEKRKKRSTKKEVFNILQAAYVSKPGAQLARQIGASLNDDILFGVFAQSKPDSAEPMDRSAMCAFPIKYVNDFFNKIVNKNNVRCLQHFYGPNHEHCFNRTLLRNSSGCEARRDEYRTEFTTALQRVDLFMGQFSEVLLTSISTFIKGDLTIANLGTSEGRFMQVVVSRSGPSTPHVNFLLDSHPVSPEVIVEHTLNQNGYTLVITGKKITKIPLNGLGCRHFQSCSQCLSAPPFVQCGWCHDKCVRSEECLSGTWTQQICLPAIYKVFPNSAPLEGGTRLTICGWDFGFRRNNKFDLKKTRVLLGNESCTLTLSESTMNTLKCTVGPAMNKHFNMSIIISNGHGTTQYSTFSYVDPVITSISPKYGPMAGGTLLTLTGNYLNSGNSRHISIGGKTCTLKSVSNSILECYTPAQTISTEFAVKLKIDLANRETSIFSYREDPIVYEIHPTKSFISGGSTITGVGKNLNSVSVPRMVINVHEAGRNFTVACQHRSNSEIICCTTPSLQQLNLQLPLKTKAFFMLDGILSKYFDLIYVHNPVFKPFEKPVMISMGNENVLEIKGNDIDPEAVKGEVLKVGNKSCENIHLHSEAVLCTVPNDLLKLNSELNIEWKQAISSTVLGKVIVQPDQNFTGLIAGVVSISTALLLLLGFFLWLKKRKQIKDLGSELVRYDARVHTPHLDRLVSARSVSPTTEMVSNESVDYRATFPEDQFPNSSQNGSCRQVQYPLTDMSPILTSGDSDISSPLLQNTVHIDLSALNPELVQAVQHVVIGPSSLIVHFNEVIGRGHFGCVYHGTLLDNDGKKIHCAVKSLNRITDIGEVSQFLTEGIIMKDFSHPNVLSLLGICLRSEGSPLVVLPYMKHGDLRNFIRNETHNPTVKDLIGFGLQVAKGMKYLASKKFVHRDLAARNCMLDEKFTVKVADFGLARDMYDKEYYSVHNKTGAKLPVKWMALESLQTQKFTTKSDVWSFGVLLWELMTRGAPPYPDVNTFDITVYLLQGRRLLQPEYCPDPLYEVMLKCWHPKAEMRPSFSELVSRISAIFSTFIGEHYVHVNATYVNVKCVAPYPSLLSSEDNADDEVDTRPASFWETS", "assay": "Kinase panel profiling (ELISA kinase assay)", "assay_type": "biochemical", "protocol": "as §1"}, "ErbB2": {"target": "ErbB2 (Homo sapiens, UniProt P04626)", "assay": "Kinase panel profiling", "assay_type": "biochemical"}, "FGFR2": {"target": "FGFR2 (Homo sapiens, UniProt P21802)", "assay": "Kinase panel profiling", "assay_type": "biochemical"}, "ErbB4": {"target": "ErbB4 (Homo sapiens, UniProt Q15303)", "assay": "Kinase panel profiling", "assay_type": "biochemical"}}, "data": [{"smiles": "O=S(=O)(c1cn(CCF)cn1)n1ccc2ncc(-c3cn[nH]c3)nc21", "note": "[Compound 13, 5-((1-(2-fluoroethyl)-1H-imidazol-4-yl)sulfonyl)-3-(1H-pyrazol-4-yl)-5H-pyrrolo[2,3-b]pyrazine]", "values": [{"measurement": "inhibition at 0.01 µM", "setting": "KDR; 10 nM", "result": 7.4, "unit": "%"}, {"measurement": "inhibition at 0.1 µM", "setting": "KDR; 100 nM", "result": 17.1, "unit": "%"}, {"measurement": "inhibition at 1 µM", "setting": "KDR; 1000 nM", "result": 46.3, "unit": "%"}, {"measurement": "inhibition at 0.01 µM", "setting": "Abl; 10 nM", "result": 0, "unit": "%"}, {"measurement": "inhibition at 0.1 µM", "setting": "Abl; 100 nM", "result": 0, "unit": "%"}, {"measurement": "inhibition at 1 µM", "setting": "Abl; 1000 nM", "result": 0, "unit": "%"}, {"measurement": "inhibition at 0.01 µM", "setting": "FGFR1; 0.01 μM (10 nM), mean of two separate experiments", "result": "> 90", "unit": "%"}, {"measurement": "inhibition at 0.1 µM", "setting": "FGFR1; 0.1 μM, mean of two separate experiments", "result": 91.7, "unit": "%"}, {"measurement": "inhibition at 1 µM", "setting": "FGFR1; 1 μM, mean of two separate experiments", "result": 100, "unit": "%"}, {"measurement": "IC50", "setting": "FGFR1; mean ± SD from two separate experiments", "result": "0.0006 ± 0.0002", "unit": "µM"}, {"measurement": "IC50", "setting": "[1]", "result": "0.0291 ± 0.0055", "unit": "µM"}, {"measurement": "inhibition at 0.01 µM", "setting": "DDR2; 10 nM", "result": 3.6, "unit": "%"}, {"measurement": "inhibition at 0.1 µM", "setting": "DDR2; 100 nM", "result": 0.9, "unit": "%"}, {"measurement": "inhibition at 1 µM", "setting": "DDR2; 1000 nM", "result": 4.6, "unit": "%"}, {"measurement": "inhibition at 0.01 µM", "setting": "c-Met; 10 nM", "result": 3.9, "unit": "%"}, {"measurement": "inhibition at 0.1 µM", "setting": "c-Met; 100 nM", "result": 3.9, "unit": "%"}, {"measurement": "Kinase Inhibition (%) c-Met", "setting": "c-Met; 1000 nM (1 μM)", "result": "nearly no inhibition"}, {"measurement": "inhibition at 1 µM", "setting": "c-Met; 1000 nM (1 μM)", "result": 4.6, "unit": "%"}, {"measurement": "inhibition at 0.01 µM", "setting": "ErbB2; 10 nM", "result": 0, "unit": "%"}, {"measurement": "inhibition at 0.1 µM", "setting": "ErbB2; 100 nM", "result": 0, "unit": "%"}, {"measurement": "inhibition at 1 µM", "setting": "ErbB2; 1000 nM", "result": 0, "unit": "%"}, {"measurement": "inhibition at 0.01 µM", "setting": "FGFR2; 10 nM", "result": 60.9, "unit": "%"}, {"measurement": "inhibition at 0.1 µM", "setting": "FGFR2; 100 nM", "result": 92, "unit": "%"}, {"measurement": "inhibition at 1 µM", "setting": "FGFR2; 1000 nM", "result": 97.2, "unit": "%"}, {"measurement": "inhibition at 0.01 µM", "setting": "ErbB4; 10 nM", "result": 0, "unit": "%"}, {"measurement": "inhibition at 0.1 µM", "setting": "ErbB4; 100 nM", "result": 0, "unit": "%"}, {"measurement": "inhibition at 1 µM", "setting": "ErbB4; 1000 nM", "result": 3, "unit": "%"}]}]}
